Assay results from patent publication US20140287048A1, “PASTE COMPRISING NON-STEROIDAL ANTI-INFLAMMATORY DRUG” (priority 2011, published 2014).

Assay: in vivo
Settings: po

## Cc1cnc(NC(=O)C2=C(O)c3ccccc3S(=O)(=O)N2C)s1 [meloxicam]
  bioavailability: ~98%
